# Assay results: patent US20240287076A1, “COMPOUNDS FOR TARGETING DEGRADATION OF BRUTON'S TYROSINE KINASE” (BIOGEN MA INC., priority 2021, published 2024)
# Biological target: T1, BTK (Homo sapiens, UniProt Q06187)
# T1 construct: The GM01501.3 cell line endogenously expresses BTK with a HiBiT fusion tag via CRISPR knock-in at its C-terminal region; endogenous in cells; host or cells: GM01501.3 (GM01501 cells engineered by CRISPR knock-in of HiBiT at the BTK locus)
# Assay: BTK degradation assay using the HiBiT Method (Nano-Glo HiBiT Lytic Assay, GM01501.3 cells)
# Format: cell-based
# Conditions: HiBiT Degradation on GM01501.3 BTK @ 6 hours
# Outline: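 Degradation read-out: HiBiT luminescence after lytic reagent addition, giving DC50. Compounds dosed from 10 μM in 11 half-log steps (duplicate) onto GM01501.3 cells, whose endogenous BTK carries a C-terminal HiBiT knock-in tag; 6 h exposure, 37 °C, 5% CO2.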
# T1 sequence (Q06187 whole entry, the tested form may be a part): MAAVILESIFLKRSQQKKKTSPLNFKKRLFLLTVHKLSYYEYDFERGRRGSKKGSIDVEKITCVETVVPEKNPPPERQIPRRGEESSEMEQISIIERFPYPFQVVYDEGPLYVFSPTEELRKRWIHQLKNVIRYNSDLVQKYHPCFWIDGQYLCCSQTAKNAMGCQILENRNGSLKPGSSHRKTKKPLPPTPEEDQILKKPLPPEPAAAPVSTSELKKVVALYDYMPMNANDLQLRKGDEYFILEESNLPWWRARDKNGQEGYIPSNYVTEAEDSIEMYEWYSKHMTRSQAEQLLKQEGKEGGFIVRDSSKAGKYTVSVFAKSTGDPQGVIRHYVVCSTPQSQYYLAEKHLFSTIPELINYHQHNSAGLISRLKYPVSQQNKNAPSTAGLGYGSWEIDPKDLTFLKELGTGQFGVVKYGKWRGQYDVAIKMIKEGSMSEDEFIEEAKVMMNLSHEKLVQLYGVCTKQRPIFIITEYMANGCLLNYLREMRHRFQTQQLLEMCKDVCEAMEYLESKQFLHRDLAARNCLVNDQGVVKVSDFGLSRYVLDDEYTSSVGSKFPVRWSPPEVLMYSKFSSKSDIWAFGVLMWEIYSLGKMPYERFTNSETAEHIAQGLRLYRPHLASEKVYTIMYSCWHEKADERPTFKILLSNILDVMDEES
row,DC50 [nM],SMILES
1,< 100,"Cc1cc(-c2ncnn3cc(N4CCN(C(=O)CC(C)(C)CNC(=O)c5ccc(OC6CCC(=O)NC6=O)cc5)CC4)cc23)ccc1CNC(=O)c1noc(C(C)(C)C)n1 (centres unmarked) [Example 192, 5-(tert-butyl)-N-(4-(6-(4-(4-(4-((2,6-dioxopiperidin-3-yl)oxy)benzamido)-3,3-dimethylbutanoyl)piperazin-1-yl)pyrrolo[2,1-f][1,2,4]triazin-4-yl)-2-methylbenzyl)-1,2,4-oxadiazole-3-carboxamide]"
2,< 100,"Cc1cc(-c2ncnn3cc(-c4ccc(CN5CCC(c6ccc(OC7CCC(=O)NC7=O)cc6)CC5)cc4)cc23)ccc1CNC(=O)c1noc(C(C)(C)C)n1 (centres unmarked) [Example 19, 5-tert-butyl-N-[[4-[6-[4-[[4-[4-[(2,6-dioxo-3-piperidyl)oxy]phenyl]-1-piperidyl]methyl]phenyl]pyrrolo[2,1-f][1,2,4]triazin-4-yl]-2-methyl-phenyl]methyl]-1,2,4-oxadiazole-3-carboxamide]"
3,< 100,"Cc1cc(-c2ncnn3cc(-c4ccc(CN5CCC(c6ccc7c(N8CCC(=O)NC8=O)nn(C)c7c6)CC5)c(F)c4)cc23)ccc1CNC(=O)c1noc(C(C)(C)C)n1 [Example 245, 5-(tert-butyl)-N-(4-(6-(4-((4-(3-(2,4-dioxotetrahydropyrimidin-1(^2H)-yl)-1-methyl-1H-indazol-6-yl)piperidin-1-yl)methyl)-3-fluorophenyl)pyrrolo[2,1-f][1,2,4]triazin-4-yl)-2-methylbenzyl)-1,2,4-oxadiazole-3-carboxamide]"
4,< 100,"Cc1cc(-c2ncnn3cc(CCN4CCC(c5ccc6c(N7CCC(=O)NC7=O)nn(C)c6c5)C(F)(F)C4)cc23)ccc1CNC(=O)c1noc(C(C)(C)C)n1 (centres unmarked) [Example 253, 5-(tert-butyl)-N-(4-(6-(2-(4-(3-(2,4-dioxotetrahydropyrimidin-1(2H)-yl)-1-methyl-1H-indazol-6-yl)-3,3-difluoropiperidin-1-yl)ethyl)pyrrolo[2,1-f][1,2,4]triazin-4-yl)-2-methylbenzyl)-1,2,4-oxadiazole-3-carboxamide]"
5,< 100,"Cc1cc(-c2ncnn3cc(-c4ccc(CN5CCC(c6ncc(NC7CCC(=O)NC7=O)cn6)CC5)cc4)cc23)ccc1CNC(=O)c1noc(C(C)(C)C)n1 (centres unmarked) [Example 14, 5-tert-butyl-N-[[4-[6-[4-[[4-[5-[(2,6-dioxo-3-piperidyl)amino]pyrimidin-2-yl]-1-piperidyl]methyl]phenyl]pyrrolo [2,1-f][1,2,4]triazin-4-yl]-2-methyl-phenyl]methyl]-1,2,4-oxadiazole-3-carboxamide]"
6,< 100,"Cc1cc(-c2ncnn3cc(-c4ccc(CCN5CCC(c6ccc(C7CCC(=O)NC7=O)cc6)C(F)(F)C5)cc4)cc23)ccc1CNC(=O)c1noc(C(C)(C)C)n1 (centres unmarked) [Example 51, 5-tert-butyl-N-[[4-[6-[4-[2-[4-[4-(2,6-dioxo-3-piperidyl)phenyl]-3,3-difluoro-1-piperidyl]ethyl]phenyl]pyrrolo[2,1-f][1,2,4]triazin-4-yl]-2-methyl-phenyl]methyl]-1,2,4-oxadiazole-3-carboxamide]"
7,< 100,"Cc1cc(-c2ncnn3cc(OCCN4CCC(c5ccc(NC6CCC(=O)NC6=O)cc5)CC4)cc23)ccc1CNC(=O)c1noc(C(C)(C)C)n1 (centres unmarked) [Example 288, 5-(tert-butyl)-N-(4-(6-(2-(4-(4-((2,6-dioxopiperidin-3-yl)amino)phenyl)piperidin-1-yl)ethoxy)pyrrolo[2,1-f][1,2,4]triazin-4-yl)-2-methylbenzyl)-1,2,4-oxadiazole-3-carboxamide]"
8,< 100,"Cn1nc(N2CCC(=O)NC2=O)c2ccc(C3CCN(Cc4ccc(-c5cc6nccc(-c7ccc(CNC(=O)c8noc(C(C)(C)C)n8)c(F)c7)n6n5)cc4F)CC3)cc21 [Example 166, 5-tert-butyl-N-[[4-[2-[4-[[4-[3-(2,4-dioxohexahydropyrimidin-1-yl)-1-methyl-indazol-6-yl]-1-piperidyl]methyl]-3-fluoro-phenyl]pyrazolo[1,5-a]pyrimidin-7-yl]-2-fluoro-phenyl]methyl]-1,2,4-oxadiazole-3-carboxamide]"
9,< 100,"Cc1cc(-c2ccnn3cc(-c4ccc(CN5CCC(c6ccc(NC7CCC(=O)NC7=O)cc6)CC5)cc4)cc23)ccc1CNC(=O)c1noc(C(C)(C)C)n1 (centres unmarked) [Example 154, 5-tert-butyl-N-[[4-[6-[4-[[4-[4-[(2,6-dioxo-3-piperidyl)amino]phenyl]-1-piperidyl]methyl]phenyl]pyrrolo[1,2-b]pyridazin-4-yl]-2-methyl-phenyl]methyl]-1,2,4-oxadiazole-3-carboxamide]"
10,< 100,"Cc1cc(-c2ncnn3cc(-c4ccc(CN5CCC(c6ccc(N[C@@H]7CCC(=O)NC7=O)cc6F)CC5)cc4)cc23)ccc1CNC(=O)c1noc(C(C)(C)C)n1 [Example 26, (R)-5-(tert-butyl)-N-(4-(6-(4-((4-(4-((2,6-dioxopiperidin-3-yl)amino)-2-fluorophenyl)piperidin-1-yl)methyl)phenyl)pyrrolo[2,1-f] [1,2,4]triazin-4-yl)-2-methylbenzyl)-1,2,4-oxadiazole-3-carboxamide]"
11,< 100,"Cc1cc(-c2ncnn3cc(-c4ccc(CN5CCC(c6ccc(NC7CCC(=O)NC7=O)cc6Cl)CC5)cc4)cc23)ccc1CNC(=O)c1noc(C(C)(C)C)n1 (centres unmarked) [Example 24, 5-tert-butyl-N-[[4-[6-[4-[[4-[2-chloro-4-[(2,6-dioxo-3-piperidyl)amino]phenyl]-1-piperidyl]methyl]phenyl]pyrrolo[2,1-f][1,2,4]triazin-4-yl]-2-methyl-phenyl]methyl]-1,2,4-oxadiazole-3-carboxamide]"
12,< 100,"Cc1cc(-c2ncnn3cc(-c4ccc(CCN5CCC(c6ccc(NC7CCC(=O)NC7=O)cc6)CC5)cc4)cc23)ccc1CNC(=O)c1noc(C(C)(C)C)n1 (centres unmarked) [Example 53, 5-tert-butyl-N-[[4-[6-[4-[2-[4-[4-[(2,6-dioxo-3-piperidyl)amino]phenyl]-1-piperidyl]ethyl]phenyl]pyrrolo[2,1-f][1,2,4]triazin-4-yl]-2-methyl-phenyl]methyl]-1,2,4-oxadiazole-3-carboxamide]"
13,< 100,"Cc1cc(-c2ncnn3cc(-c4ccc(C(=O)N[C@H](C)c5cccc(NC6CCC(=O)NC6=O)c5)cc4)cc23)ccc1CNC(=O)c1noc(C(C)(C)C)n1 (stereo partly drawn) [Example 199, 5-(tert-butyl)-N-(4-(6-(4-(((1R)-1-(3-((2,6-dioxopiperidin-3-yl)amino)phenyl)ethyl)carbamoyl)phenyl)pyrrolo[2,1-f] [1,2,4]triazin-4-yl)-2-methylbenzyl)-1,2,4-oxadiazole-3-carboxamide]"
14,< 100,"CC(C)(C)c1nc(C(=O)NCc2ccc(-c3ncnn4cc(CCCCN5CCN(c6ccc(NC7CCC(=O)NC7=O)cn6)CC5)cc34)cc2F)no1 (centres unmarked) [Example 139, 5-tert-butyl-N-[[4-[6-[4-[4-[5-[(2,6-dioxo-3-piperidyl)amino]-2-pyridyl]piperazin-1-yl]butyl]pyrrolo[2,1-f][1,2,4]triazin-4-yl]-2-fluoro-phenyl]methyl]-1,2,4-oxadiazole-3-carboxamide]"
15,< 100,"COc1cc(CN2CCC(c3ccc(NC4CCC(=O)NC4=O)cc3)CC2)ccc1-c1cc2c(-c3ccc(CNC(=O)c4noc(C(C)(C)C)n4)c(C)c3)ncnn2c1 (centres unmarked) [Example 21, 5-tert-butyl-N-[[4-[6-[4-[[4-[4-[(2,6-dioxo-3-piperidyl)amino]phenyl]-1-piperidyl]methyl]-2-methoxy-phenyl]pyrrolo[2,1-f][1,2,4]triazin-4-yl]-2-methyl-phenyl]methyl]-1,2,4-oxadiazole-3-carboxamide]"
16,< 100,"Cc1cc(-c2ncnn3cc(-c4ccc5c(c4)CN(CCc4ccc(NC6CCC(=O)NC6=O)cc4)C5)cc23)ccc1CNC(=O)c1noc(C(C)(C)C)n1 (centres unmarked) [Example 55, 5-tert-butyl-N-[[4-[6-[2-[2-[4-[(2,6-dioxo-3-piperidyl)amino]phenyl]ethyl]isoindolin-5-yl]pyrrolo[2,1-f][1,2,4]triazin-4-yl]-2-methyl-phenyl]methyl]-1,2,4-oxadiazole-3-carboxamide]"
17,< 100,"Cc1cc(-c2ncnn3cc(CCCCN4CCC(c5ccc(NC6CCC(=O)NC6=O)cc5)C(F)(F)C4)cc23)ccc1CNC(=O)c1noc(C(C)(C)C)n1 (centres unmarked) [Example 132, 5-tert-butyl-N-[[4-[6-[4-[4-[4-[(2,6-dioxo-3-piperidyl)amino]phenyl]-3,3-difluoro-1-piperidyl]butyl]pyrrolo[2,1-f][1,2,4]triazin-4-yl]-2-methyl-phenyl]methyl]-1,2,4-oxadiazole-3-carboxamide]"
18,< 100,"Cc1cc(-c2ncnn3cc(-c4ccc(CN5CCC(c6ccc(NC7CCC(=O)NC7=O)cc6)CC5)cc4)cc23)ccc1CNC(=O)c1ncc(C(C)(C)C)o1 (centres unmarked) [Example 86, 5-tert-butyl-N-[[4-[6-[4-[[4-[4-[(2,6-dioxo-3-piperidyl)amino]phenyl]-1-piperidyl]methyl]phenyl]pyrrolo[2,1-f][1,2,4]triazin-4-yl]-2-methyl-phenyl]methyl]oxazole-2-carboxamide]"
19,< 100,"Cc1cc(-c2ncnn3cc(N4CCN(C(=O)CCCC5CN(C(=O)c6ccc(OC7CCC(=O)NC7=O)cc6)C5)CC4)cc23)ccc1CNC(=O)c1noc(C(C)(C)C)n1 (centres unmarked) [Example 184, 5-(tert-butyl)-N-(4-(6-(4-(4-(1-(4-((2,6-dioxopiperidin-3-yl)oxy)benzoyl)azetidin-3-yl)butanoyl)piperazin-1-yl)pyrrolo[2,1-f][1,2,4]triazin-4-yl)-2-methylbenzyl)-1,2,4-oxadiazole-3-carboxamide]"

row,SMILES,DC50 [nM]
1,"Cn1nc(N2CCC(=O)NC2=O)c2ccc(C3CCN(Cc4ccc(-c5cc6nccc(-c7ccc(CNC(=O)N8CC(OC(C)(C)C)C8)c(F)c7)n6n5)cc4)CC3)cc21 [Example 165, 3-tert-butoxy-N-[[4-[2-[4-[[4-[3-(2,4-dioxohexahydropyrimidin-1-yl)-1-methyl-indazol-6-yl]-1-piperidyl]methyl]phenyl]pyrazolo[1,5-a]pyrimidin-7-yl]-2-fluoro-phenyl]methyl]azetidine-1-carboxamide]",< 100
